Data taken from US9670217B2, “Process for preparing chlorins and their pharmaceutical uses” (UNIVERSIDADE DE COIMBRA, priority 2008, dated 2017).

Experiments:
S91 Cloudman melanoma = test: PDT of implanted S91 tumors; assay type: in vivo, DBA/2 mice
Excerpt: (§1) The mice used in the present study were form two sources. Dark toxicity, biodistribution and farmacokinetic studies employed DBA/2 mice, weighing 20-30 g, from the animal breeding facility at the Faculty of Biochemistry, Biophysics and Biotechnology, Jagiellonian University, Krakow. The mice were kept on a standard laboratory diet with free access to drinking water. The use of such animals for experimental purposes was approved by the Jagiellonian University Committee for Ethics of Experiments on Animals (decision No. 384/99). Such mice were also employed in PDT.
The tumors grew to reach 5 mm in about one week after the implantation. No spontaneous necrosis was observed. The treatment was initiated when the tumor attained 5 mm in diameter in each animal. The day the tumors reached the treatment size, the mice were injected via i.p. with a dose of 10 mg/kg of Luzitin-C12Et in PEG400. At 24 h post-injection, the mice were anesthetized with ketamine and xylazine, and restrained in plastic holders, then treated with different light doses with the Hamamatsu 748 nm diode laser described before. […] The mice were checked daily, and the size of the tumors was measured and recorded.

[1] = system: SKMEL 188 (human melanoma); test: Cell photosensitization, filtered halogen lamp, MTT; assay type: cell-based; conditions: [Luzitin-Cl] = 20 μM
Description: (§2) Irradiation in in vitro experiments was performed using either a halogen lamp or a laser source. In the first case, a 500 W halogen lamp was placed 50 cm from the irradiated plate to insure a homogeneous irradiation. A cooled water filter (d=35 mm) and a 600 nm cut off filter were placed between the lamp and samples. The fluence rate reaching samples was 3 mW/cm^2. The emission spectrum of the halogen lamp was recorded using a spectroradiometer IL2000 (Spectrocube), FIG. 1. In the second case, three Lynx external cavity diode lasers TEC 500 powered by PilotPC 500 Laser Controllers (Sacher Lasertechnik, Marburg, Germany) were employed. The laser energies were stable at 40 mW for the 748 nm laser, 10 mW for the 649 laser and 10 mW for the 633 laser. The laser energies were regularly measured with a Coherent LaserCheck. In some in vitro experiments, the laser light was focused on an optical fiber through a collimator in microbench, and delivered to the cells. This system reduced the 748 nm laser light to 30 mW.
The cell lines employed in halogen lamp irradiation were the MCF7 (human breast carcinoma), SKMEL 188 (human melanoma) and S91/I3 (mouse melanoma) cells. They were used both for cytotoxicity and photocytotoxicity experiments. MCF7 cells were grown supplemented with 10% fetal calf (FBS) serum, 25 units/ml of penicillin, and 25 μg/ml of streptomycin. Human melanoma cells SKMEL-188 were grown in F10 medium supplemented with 10% fetal calf serum (FCS), 100 units/ml of penicillin, and 100 μg/ml of streptomycin. I3 subline of Cloudman S91 melanoma cells were cultured in RPMI 1640 medium supplemented with 100 units/ml of penicillin, 100 μg/ml streptomycin and 5% fetal calf serum (FCS) (Gibco BRL). […]
Cytotoxicity. Cell metabolic efficiency and viability were determined by the uptake and reduction of 3-(4,5-dimethylthiazol-2-yl)-2,5-diphenyl tetrazolium bromide (MTT) to an insoluble formazan dye by cellular microsomal enzymes. […] The 96-well culture plate was shaken for 0.5 min at room temperature and immediately read for optical density at 560 nm using an ELISA reader (GENios Plus; Tecan Trading AG, Switzerland). The cell survival was expressed by the absorbance changes of the formazan salt, and survival rate was given as the percent ratio of viable treated cells vs. the number of viable untreated cells. Number of cells was determined from linear regression of a calibration curve.
Cell photosensitization. […] The values were obtained from three independent experiments and expressed as percent of cell survival with reference to control cells, which were manipulated in the same manner but without incubation with photosensitizer and without illumination.

[2] = system: MCF7 (human breast carcinoma); test: as above; assay type: cell-based
Description: as §2
(§3) The cell lines employed in halogen lamp irradiation were the MCF7 (human breast carcinoma), SKMEL 188 (human melanoma) and S91/I3 (mouse melanoma) cells. They were used both for cytotoxicity and photocytotoxicity experiments. MCF7 cells were grown supplemented with 10% fetal calf (FBS) serum, 25 units/ml of penicillin, and 25 μg/ml of streptomycin. Human melanoma cells SKMEL-188 were grown in F10 medium supplemented with 10% fetal calf serum (FCS), 100 units/ml of penicillin, and 100 μg/ml of streptomycin. I3 subline of Cloudman S91 melanoma cells were cultured in RPMI 1640 medium supplemented with 100 units/ml of penicillin, 100 μg/ml streptomycin and 5% fetal calf serum (FCS) (Gibco BRL). All cell lines were cultivated as monolayer in Petri dishes of 60 mm diameter and incubated at 37° C. in a humid atmosphere containing 5% CO2.
(§4) Cytotoxicity. Cell metabolic efficiency and viability were determined by the uptake and reduction of 3-(4,5-dimethylthiazol-2-yl)-2,5-diphenyl tetrazolium bromide (MTT) to an insoluble formazan dye by cellular microsomal enzymes. The cell lines were grown in RPMI medium with 10% fetal calf serum, penicillin and streptomycin. Cells were maintained in 5% CO2, 95% air and 100% humidity. For determining cytotoxicity, these cells were plated in 96-well plates at a density of 1×10^4 cells well in complete media. After 24 h, the cells were incubated with photosensitizers at different concentrations (0.25 up to 50 μM) for 18 hours at 37° C. The cells were then washed twice with PBS and incubated in growth medium at 37° C. for 24 h. Next, the medium was replaced by 100 μl of fresh medium and 20 μl of MTT, and the cells were incubated with MTT for 3 h, with a final concentration of 0.5 mg/ml. Then the culture medium was replaced with DMSO-methanol solution (1:1) to dissolve the blue formazan crystals. The 96-well culture plate was shaken for 0.5 min at room temperature and immediately read for optical density at 560 nm using an ELISA reader (GENios Plus; Tecan Trading AG, Switzerland). The cell survival was expressed by the absorbance changes of the formazan salt, and survival rate was given as the percent ratio of viable treated cells vs. the number of viable untreated cells. Number of cells was determined from linear regression of a calibration curve.
(§5) Cell photosensitization. SKMEL 188, S91 and MCF7 cells were prepared as described above. […] The cells were incubated for 12 h at 37° C. and then irradiated at a 0.53 mW cm^2 fluence rate and in doses ranging from 0.1 to 0.64 J cm^2. We recall that photosensitizer uses only ca. ⅕ of the available fluence rate of the filtered halogen lamp. The MTT test was performed 24 h after irradiation. The values were obtained from three independent experiments and expressed as percent of cell survival with reference to control cells, which were manipulated in the same manner but without incubation with photosensitizer and without illumination. […]

S91 (mouse melanoma) = test: as above; assay type: cell-based; conditions: [Luzitin-Cl] = 20 μM
Description: as §2, §3, §4, §5

[3] = In vivo toxicity in the dark; design: species or system DBA/2 mice; conditions: for sensitivity to light: first 6 days
Excerpt: as §1
The mice were divided into the following experimental groups:
The solutions of Luzitin-Cl (0.5 ml) were injected subcutaneously and for 30 days the animals were closely observed. […] They manifested such sensitivity by moving away from light sources directly pointed at them. […] After 30 days the animals were anaesthetized using Morbital (Biowet, Poland), their organs and tissue samples were excised, and blood morphology as well as histology of selected organs tests was performed.

[4] = Bacteriochlorin pharmacokinetics and biodistribution following ip administration, S91 tumor-bearing mice; conditions: 10 mg/kg ip
[5] = [Luzitin-Cl] = 20 μM, filtered halogen lamp

CCNS(=O)(=O)c1ccc(Cl)c(-c2c3nc(c(-c4c(Cl)ccc(S(=O)(=O)NCC)c4Cl)c4ccc([nH]4)c(-c4c(Cl)ccc(S(=O)(=O)NCC)c4Cl)c4nc(c(-c5c(Cl)ccc(S(=O)(=O)NCC)c5Cl)c5ccc2[nH]5)CC4)CC3)c1Cl [Luzitin-Cl2Et, 5,10,15,20-tetrakis(2,6-dichloro-3-N-ethylsulfamoylphenyl)bacteriochlorin]
tumor response after PDT (S91 Cloudman melanoma; 10 mg/kg i.p. in PEG400, 24 h post-injection, 748 nm laser, single session): long-lasting tumor regression | necrosis of irradiated tumor area (S91 Cloudman melanoma; within minutes of the irradiation): evident signals of necroses

O=S(=O)(O)c1ccc(Cl)c(-c2c3nc(c(-c4cc(S(=O)(=O)O)ccc4Cl)c4ccc([nH]4)c(-c4cc(S(=O)(=O)O)ccc4Cl)c4nc(c(-c5cc(S(=O)(=O)O)ccc5Cl)c5ccc2[nH]5)CC4)CC3)c1 [Luzitin-Cl, 5,10,15,20-tetrakis(2-chloro-5-sulfonylphenyl)bacteriochlorin]
LD50 (light dose to kill 50% of the cells) [1]: 0.1 J/cm^2 | LD90 (light dose to kill 90% of the cells) [1]: 0.32 J/cm^2 | cell kill ([2]; 5 μM, filtered halogen light 0.6 J/cm^2, 12 h incubation): 100% | LD50 (light dose to kill 50% of the cells) [2, 5]: 0.08 J/cm^2 | LD90 (light dose to kill 90% of the cells) [2, 5]: 0.25 J/cm^2 | LD50 (light dose to kill 50% of the cells) (S91 (mouse melanoma)): 0.15 J/cm^2 | LD90 (light dose to kill 90% of the cells) (S91 (mouse melanoma)): 0.3 J/cm^2 | sensitivity to light ([3]; 15 mg/kg subcutaneous, some animals): slight sensitivity | sensitivity to light ([3]; 20 mg/kg subcutaneous): revealed sensitivity to the light | body mass changes ([3]; 2-20 mg/kg subcutaneous, 30 days): no significant mass changes were observed | blood morphology and histology of selected organs ([3]; 2-20 mg/kg subcutaneous, after 30 days): No changes were observed in the blood or in organs | accumulation in the skin [4]: negligible | time to clearance from most of the organs [4]: 24 h | concentration in tumor relative to muscle ([4]; one day after administration): 3 times
